Results reported in patent publication US20220213030A1, “AMINOGUANIDINE HYDRAZONES AS RETROMER STABILIZERS USEFUL FOR TREATING NEUROLOGICAL DISEASES” (OSPEDALE SAN RAFFAELE SRL, priority 2019, published 2022).

What was measured:
G93A mice = assay: Motor neuron counts in ventral horn of lumbar spinal cord of G93A mice; type: in vivo, mouse; settings: 10 mg/kg daily, day 100
Method: Mice were sacrificed at day 100, and lumbar SCs assayed for studying MNs cell morphology and numbers. We initially scored NeuN^+ neurons in the ventral horn of the SC to monitor bona fide motor neurons.
Sections from mice (frozen cryo sections) or glass covers containing cells were washed three times in PBS 1× (Lonza, 5 min each), and incubated in the following blocking mix: PBS 1×/FBS 10% (Invitrogen), BSA 1 mg/mL (Sigma), TritonX100 0.1% (Sigma), for 1 h at room temperature. Antibodies were diluted in blocking mix and incubated at +4° C. overnight according manufacturer's instructions. The following day, sections were rinsed in PBS and fluorescent secondary antibodies—i.e. never deriving from the species from which the primary antibodies are derived—(Alexafluor conjugated) diluted in blocking mix, were used according to the manufacturer's instructions. Slides were incubated in Hoechst 33342 (Sigma) for nuclei counterstaining. When necessary, we performed antigens retrieval by boiling samples in 10 mM sodium citrate (pH 6) for 5 min. […]
Mice were maintained under pathogen-free conditions at San Raffaele Hospital mouse facility (Milan, Italy). […] Animal cohort numbers were determined by power analysis based on preliminary results.

Golgi apparatus (GM130) = assay: GM130 Golgi labelling in MNs of G93A mice; type: in vivo, mouse; settings: 10 mg/kg, day 100
Excerpt: Ubiquitinated inclusions accumulate in MNs of sALS and fALS patients and in lumbar SCs of ALS mice (Kabashi 2001). High levels of ubiquitinated proteins may represent an overwhelmed response of MNs to protein misfolding and aggregation, as well as a reduction of lysosome functionality. We characterized poly-ubiquitinated proteins in lumbar SCs protein extracts by 10% denaturating PAGE. We included in our experiments protein extracts from Neuro2a cells treated with the proteasome inhibitor Bortezomib (BTZ), able to increase poly-ubiquitination, as an experimental control (FIG. 13A). […] We next scored ubiquitin MFI levels in ventral horn MNs of G93A mice. […] As previously observed in Neuro2a cells, the overexpression of G93A plasmids affects the Golgi apparatus, therefore we asked whether similar alterations can occur in G93A mice by labeling lumbar sections for the cis-Golgi matrix protein GM130.
Sections from mice (frozen cryo sections) or glass covers containing cells were washed three times in PBS 1× (Lonza, 5 min each), and incubated in the following blocking mix: PBS 1×/FBS 10% (Invitrogen), BSA 1 mg/mL (Sigma), TritonX100 0.1% (Sigma), for 1 h at room temperature. Antibodies were diluted in blocking mix and incubated at +4° C. overnight according manufacturer's instructions. […]

LC3 = assay: pHfluorin-LC3 autophagy assay in Neuro2a clone 7B11; type: cell-based, mouse; settings: 48 hours
Method: Besides increasing the functionality of lysosomes we hypothesised that compound 2a could also enhance the autophagy system. Therefore we used a pHfluorin-LC3-based assay to monitor the autophagy process in living Neuro2a cells. We have established in our laboratory a Neuro2a stable cell clone (7B11) that expresses the Microtubule-associated protein 1A/1B-light chain 3 (LC3) coupled with the ph-sensitive GFP/phlourin.
Neuro2a-7B11 cells were incubated with increasing concentrations of compound 2a (0.1-100 μM) as well as with the control molecules Bafilomycin Al and Torin-1. After 48 hours the GFP/phluorin signal, which is ph-sensitive, was measured by flow cytometry and fold changes calculated over untreated cells.
Autophagy assay were done using a stable Neuro2a cell clone expressing the pHluorin-mKate2-tagged human LC3 plasmids, Cell clones were generated according our published methods (Mazzocchi 2016). Upon transfection, cells were selected by 400 μg/mL G418 Disulfate Salt Solution (Sigma-Aldrich, St. Louis, Mo.) and further cloned by limiting dilution. […] Neuro2a 7B11 cells were treated with Compound 2a (0.1-100 μM) for 48 hours then MFI levels of the pHfluorin were measured in living cells by flow cytometry.

Compound: N=C(N)NN=Cc1cccc(C=NNC(=N)N)c1 [Compound 2a, 1,3-Bis-amino guanidine phenyl hydrazone]
- numbers of NeuN+ motor neurons in the ventral horn (G93A mice): significantly higher numbers of motor neurons than vehicle-treated G93A mice
- reduction of GM130-covered areas in MNs (Golgi apparatus (GM130)): substantially reverted
- GFP/phluorin signals (fold changes over untreated cells) (LC3; 0.1 and 1μM): did not change
- GFP/phluorin fluorescence levels (fold changes over untreated cells) (LC3; 10 and 100 μM): significant reduction of fluorescence levels
